Assay results from patent publication US12391686B2, “Compounds and uses thereof” (Foghorn Therapeutics Inc., priority 2019, dated 2025).

molecular target: T1, Nanoluciferase-BRD9 fusion protein (3×FLAG-NLuc-BRD9) in SYO-1 cells (Homo sapiens, UniProt Q9H8M2); assay: SYO1 BRD9 NanoLuc Degradation Assay; format: cell-based; conditions: Table 6B; SYO-1 cells expressing 3×FLAG-NLuc-BRD9, 6 hours incubation, 1 μM top dose; read-out: SYO1 BRD9-NanoLuc degradation IC50
T1 construct: expressed in transfected cells; host or cells: SYO-1
T1 sequence (Q9H8M2 1-597): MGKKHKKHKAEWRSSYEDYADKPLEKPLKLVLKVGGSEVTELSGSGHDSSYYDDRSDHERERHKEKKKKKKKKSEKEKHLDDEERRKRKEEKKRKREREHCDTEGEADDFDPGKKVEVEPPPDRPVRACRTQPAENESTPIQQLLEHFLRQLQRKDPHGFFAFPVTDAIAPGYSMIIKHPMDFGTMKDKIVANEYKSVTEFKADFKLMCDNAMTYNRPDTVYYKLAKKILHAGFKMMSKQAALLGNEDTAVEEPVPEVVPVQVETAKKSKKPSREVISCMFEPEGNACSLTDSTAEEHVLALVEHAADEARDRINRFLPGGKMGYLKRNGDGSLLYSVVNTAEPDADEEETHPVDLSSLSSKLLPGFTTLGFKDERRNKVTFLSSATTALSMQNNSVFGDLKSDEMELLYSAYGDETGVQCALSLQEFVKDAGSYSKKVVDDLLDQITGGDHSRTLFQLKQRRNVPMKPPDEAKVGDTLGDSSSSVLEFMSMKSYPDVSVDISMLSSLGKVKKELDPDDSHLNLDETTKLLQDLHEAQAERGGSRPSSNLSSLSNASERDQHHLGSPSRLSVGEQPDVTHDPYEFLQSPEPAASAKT
How it was run: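 NanoLuc signal, read by Nano-Glo luminescence after 6 h compound exposure, gives % inhibition against DMSO-treated cells (high control) and cells given 1 μM of a standard BRD9 degrader (low control). Test compounds ran as 10-point 3-fold series, top 1 μM final, in duplicate on SYO-1 cells stably expressing 3×FLAG-NLuc-BRD9.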

| DC50 [µM] | Compound |
| --- | --- |
| < 0.01 | COc1cc(-c2cn(C)c(=O)c3cnc(N4CCOCC4)cc23)cc(OC)c1CN1CCN(c2ccc3c(c2)C(=O)N(C2CCC(=O)NC2=O)C3=O)CC1 (stereo not shown) [Compound D141] |
| < 0.01 | COc1cc(-c2cn(C)c(=O)c3cnc(N(C)C)cc23)cc(OC)c1CN1CCC(CN2CCC3(CC2)CC(Oc2ccc4c(c2)CN(C2CCC(=O)NC2=O)C4=O)C3)CC1 (stereo not shown) [Compound D103] |
| < 0.01 | COc1cc(-c2cn(C)c(=O)c3cnc(N(C)C)cc23)cc(OC)c1CN1CC2(CCN(C(C)(C)C#Cc3ccc4c(c3)C(=O)N(C3CCC(=O)NC3=O)C4=O)CC2)C1 (stereo not shown) [Compound D73] |
| < 0.01 | C/C=C/n1cc(-c2cc(OC)c(CN3CCN(CCC4CCN(c5ccc6c(c5)C(=O)N(C5CCC(=O)NC5=O)C6=O)CC4)CC3)c(OC)c2)c2cc(N(C)C)ncc2c1=O (stereo not shown) [Compound D139] |
| < 0.01 | COc1cc(-c2cn(C)c(=O)c3cnc(N(C)C)cc23)cc(OC)c1CN1CCC2C(C1)CN2c1ccc2c(c1)C(=O)N(C1CCC(=O)NC1=O)C2=O (stereo not shown) [Compound D93] |
| < 0.01 | COc1cc(-c2cn(C)c(=O)c3cnc(N(C)C)cc23)cc(OC)c1CN1Cc2cc3c(cc2C1)C(=O)N(C1CCC(=O)NC1=O)C3=O (stereo not shown) [Compound D86] |
| < 0.01 | COc1cc(-c2cn(C)c(=O)c3cnc(N(C)C)cc23)cc(OC)c1CN1CCC(C(N2CCC3(CC2)CC(Oc2ccc4c(c2)C(=O)N(C2CCC(=O)NC2=O)C4=O)C3)C(F)(F)F)CC1 (stereo not shown) [Compound D99] |
| < 0.01 | CCn1cc(-c2cc(OC)c(CN3CCC(N4CCN(c5ccc6c(c5)CN(C5CCC(=O)NC5=O)C6=O)CC4)CC3)c(OC)c2)c2cc(N3CCC3)ncc2c1=O (stereo not shown) [Compound D123] |
| < 0.01 | COc1cc(-c2cn(C)c(=O)c3cnc(N(C)C)cc23)cc(OC)c1CN1CCN(c2ccn3c(=O)n(C4CCC(=O)NC4=O)nc3c2)CC1 (stereo not shown) [Compound D154] |
| 0.01 to 0.1 | COc1cc(-c2cn(C)c(=O)c3cnc(N(C)C)cc23)cc(OC)c1CN1CC(CCCN2CCN(c3ccc4c(c3)C(=O)N(C3CCC(=O)NC3=O)C4=O)CC2)C1 (stereo not shown) [Compound D44] |
| 0.01 to 0.1 | CNc1cc2c(=O)n(C)cc(-c3cc(OC)c(CN(C)CC45CC(C(=O)NCCCCCNc6cccc7c6C(=O)N(C6CCC(=O)NC6=O)C7=O)(C4)C5)c(OC)c3)c2cn1 (stereo not shown) [Compound D172] |
| < 0.01 | COc1cc(-c2cn(C)c(=O)c3cnc(N(C)C)cc23)cc(OC)c1CN1CCC(CN2CCC3(CC2)CN(c2ccc4c(c2)C(=O)N(C2CCC(=O)NC2=O)C4=O)C3)CC1 (stereo not shown) [Compound D125] |
| 0.01 to 0.1 | COc1cc(-c2cn(C)c(=O)c3cnc(N(C)C)cc23)cc(OC)c1CN1CCC(CCCN2CCN(C3CCC(=O)NC3=O)C(=O)C2)CC1 (stereo not shown) [Compound D117] |
| < 0.01 | COc1cc(-c2cn(C)c(=O)c3cnc(N(C)C)cc23)cc(OC)c1CN1CC(Oc2ccc3c(c2)C(=O)N(C2CCC(=O)NC2=O)C3=O)C1 (stereo not shown) [Compound D98] |
| < 0.01 | COc1cc(-c2cn(C)c(=O)c3cnc(N4CCC4)cc23)cc(OC)c1CN1CCC(CN2CCC3(CC2)CC(Oc2ccc4c(c2)C(=O)N(C2CCC(=O)NC2=O)C4=O)C3)CC1 (stereo not shown) [Compound D80] |
| < 0.01 | C/C=C/Cn1cc(-c2cc(OC)c(CN3CCN(CCC4CCN(c5ccc6c(c5)C(=O)N(C5CCC(=O)NC5=O)C6=O)CC4)CC3)c(OC)c2)c2cc(N(C)C)ncc2c1=O (stereo not shown) [Compound D151] |
| < 0.01 | CCc1cc(-c2cn(C)c(=O)c3cnc(N(C)C)cc23)cc(OC)c1CN1CCC(CN2CCC3(CC2)CC(Oc2ccc4c(c2)C(=O)N(C2CCC(=O)NC2=O)C4=O)C3)CC1 (stereo not shown) [Compound D112] |
| < 0.01 | COc1cc(-c2cn(C)c(=O)c3cnc(N4CCC4)cc23)cc(OC)c1CN1CC(Oc2ccc3c(c2)C(=O)N(C2CCC(=O)NC2=O)C3=O)C1 (stereo not shown) [Compound D137] |

same assay, conditions: Table 6C; SYO-1 cells expressing 3×FLAG-NLuc-BRD9, 6 hours incubation, 1 μM top dose; read-out: SYO1 BRD9-NanoLuc degradation IC50

| DC50 [µM] | Compound |
| --- | --- |
| < 0.01 | COc1cc(-c2cn(C)c(=O)c3cnc(N4CCC4)cc23)cc(OC)c1CN1CCC(c2ccc3c(c2)C(=O)N(C2CCC(=O)NC2=O)C3)CC1 (stereo not shown) [Compound D313] |
| < 0.01 | COc1cc(-c2cn(C)c(=O)c3cnc(C4CC4)cc23)cc(OC)c1CN1CCC(C(N2CCC3(CC2)CC(Oc2ccc4c(c2)C(=O)N(C2CCC(=O)NC2=O)C4=O)C3)C(F)(F)F)CC1 (stereo not shown) [Compound D195] |
| < 0.01 | COc1cc(-c2cn(C)c(=O)c3cnc(C4COC4)cc23)cc(OC)c1CN1CCN(CCC2CCN(c3ccc4c(c3)C(=O)N(C3CCC(=O)NC3=O)C4=O)CC2)CC1 (stereo not shown) [Compound D308] |
| < 0.01 | [2H]C([2H])([2H])n1cc(-c2cc(OC)c(CN3CC(Oc4ccc5c(c4)CN(C4CCC(=O)NC4=O)C5=O)C3)c(OC)c2)c2cc(OC)ncc2c1=O (stereo not shown) [Compound D242] |
| < 0.01 | COc1cc(-c2cn(C)c(=O)c3cnc(N4CC(F)(F)C4)cc23)cc(OC)c1CN1CCC(CN2CCC3(CC2)CN(c2ccc4c(c2)C(=O)N(C2CCC(=O)NC2=O)C4)C3)CC1 (stereo not shown) [Compound D291] |
| < 0.01 | CCc1cc(-c2cn(C)c(=O)c3cnc(N4CCC4)cc23)cc(OC)c1CN1CCC2(CC1)CN(c1ccc3c(c1)C(=O)N(C1CCC(=O)NC1=O)C3)C2 (stereo not shown) [Compound D264] |
| < 0.01 | COc1cc(-c2cn(C)c(=O)c3cnc(C(C)(C)C)cc23)cc(OC)c1CN1CCC(CN2CCC3(CC2)CC(Oc2ccc4c(c2)C(=O)N(C2CCC(=O)NC2=O)C4)C3)CC1 (stereo not shown) [Compound D214] |
| ≥ 1 | COc1cc(-c2cn(C)c(=O)c3cnc(N(C)C)cc23)cc(OC)c1CN1CCC(N2CCN(C3CCC(=O)NC3=O)C(=O)C2)CC1 (stereo not shown) [Compound D253] |
| < 0.01 | COc1cc(-c2cn(C)c(=O)c3cnc(S(N)(=O)=O)cc23)cc(OC)c1CN1CCC(CN2CCC3(CC2)CC(Oc2ccc4c(c2)C(=O)N(C2CCC(=O)NC2=O)C4)C3)CC1 (stereo not shown) [Compound D188] |
| < 0.01 | COc1cc(-c2cn(C)c(=O)c3cnc(N(C)C)cc23)cc(OC)c1-c1ccc2c(c1)C(=O)N(C1CCC(=O)NC1=O)C2 (stereo not shown) [Compound D274] |
| < 0.01 | [2H]C([2H])([2H])n1cc(-c2cc(OC)c(CN3[C@H](C)CN(c4ccc5c(c4)C(=O)N(C4CCC(=O)NC4=O)C5)C[C@H]3C)c(OC)c2)c2cc(N(C)C)ncc2c1=O (stereo partly shown) [Compound D276] |
| < 0.01 | COc1cc(-c2cn(C)c(=O)c3cnc(C4CC4)cc23)cc(OC)c1CN1CCC(CCN2CCN(c3ccc4c(c3)C(=O)N(C3CCC(=O)NC3=O)C4=O)CC2)CC1 (stereo not shown) [Compound D304] |
| < 0.01 | COc1cc(-c2cn(C)c(=O)c3cnc(N(C)C)cc23)cc(OC)c1CCN1CCC(CN2CCC3(CC2)CC(Oc2ccc4c(c2)C(=O)N(C2CCC(=O)NC2=O)C4)C3)CC1 (stereo not shown) [Compound D298] |
| < 0.01 | COc1cc(-c2cn(C)c(=O)c3cnc(N4CCC4)cc23)cc(OC)c1CN1[C@H](C)CN(CCC2CCN(c3ccc4c(c3)C(=O)N(C3CCC(=O)NC3=O)C4=O)CC2)C[C@H]1C (stereo partly shown) [Compound D222] |
| < 0.01 | [2H]C([2H])([2H])n1cc(-c2cc(OC)c(CN3CCN(CCC4CCN(c5ccc6c(c5)C(=O)N(C5CCC(=O)NC5=O)C6)CC4)CC3)c(OC)c2)c2cc(OC)ncc2c1=O (stereo not shown) [Compound D231] |
| < 0.01 | [2H]C([2H])([2H])N(c1cc2c(-c3cc(OC)c(CN4CCN(CCC5CCN(c6ccc7c(c6)C(=O)N(C6CCC(=O)NC6=O)C7)CC5)CC4)c(OC)c3)cn(C)c(=O)c2cn1)C([2H])([2H])[2H] (stereo not shown) [Compound D197] |
| < 0.01 | COc1cc(-c2cn(C)c(=O)c3cnc(N4CC(F)C4)cc23)cc(OC)c1CN1CC(CN2CCC3(CC2)CN(c2ccc4c(c2)C(=O)N(C2CCC(=O)NC2=O)C4)C3)C1 (stereo not shown) [Compound D200] |
| < 0.01 | COc1cc(-c2cn(C)c(=O)c3cnc(N(C)C)cc23)cc(OC)c1CN1CCC(c2ccc3c(c2)C(=O)N(C2CCC(=O)NC2=O)C3)CC1 (stereo not shown) [Compound D296] |
| < 0.01 | [2H]C([2H])([2H])n1cc(-c2cc(OC)c(CN3CCC4(CC3)CN(c3ccc5c(c3)C(=O)N(C3CCC(=O)NC3=O)C5)C4)c(OC)c2)c2cc(C3CC3)ncc2c1=O (stereo not shown) [Compound D233] |
| < 0.01 | COc1cc(-c2cn(C)c(=O)c3cnc(C4CC4)cc23)cc(OC)c1CN1CC(CN2CCC3(CC2)CN(c2ccc4c(c2)C(=O)N(C2CCC(=O)NC2=O)C4=O)C3)C1 (stereo not shown) [Compound D303] |
| < 0.01 | COc1cc(-c2cn(C)c(=O)c3cnc(N4CCC4)cc23)cc(OC)c1CN1CCC(c2ccc3c(c2)CN(C2CCC(=O)NC2=O)C3=O)CC1 (stereo not shown) [Compound D312] |
| < 0.01 | COc1cc(-c2cn(C)c(=O)c3cnc(N4CCC4)cc23)cc(OC)c1CN1CCC(CN2CCC3(CN(c4ccc5c(c4)CN(C4CCC(=O)NC4=O)C5=O)C3)C(F)(F)C2)CC1 (stereo not shown) [Compound D232] |
| < 0.01 | [2H]C([2H])([2H])n1cc(-c2cc(OC)c(CN3CC(Oc4ccc5c(c4)C(=O)N(C4CCC(=O)NC4=O)C5)C3)c(OC)c2)c2cc(OC)ncc2c1=O (stereo not shown) [Compound D239] |
| < 0.01 | COc1cc(-c2cn(C)c(=O)c3cnc(C4CC4)cc23)cc(OC)c1CN1CC(C#Cc2ccc3c(c2)C(=O)N(C2CCC(=O)NC2=O)C3)C1 (stereo not shown) [Compound D263] |
| < 0.01 | COc1cc2c(-c3cc(OC)c(CN4CCC(CN5CCC6(CC5)CN(c5ccc7c(c5)C(=O)N(C5CCC(=O)NC5=O)C7)C6)CC4)c(OC)c3)cn(C)c(=O)c2cn1 (stereo not shown) [Compound D289] |
